Patent EP0445920A2, “Use of ethoxy phenoxy acetic acid derivatives against diabetes” (IMPERIAL CHEMICAL INDUSTRIES PLC, priority 1990, dated 1991)

System: oral glucose tolerance in rats
Assay: Oral glucose tolerance test in fasted rats (blood glucose by glucose oxidase method)
Type: in vivo, Male, Alderley Park, Wistar rats
Conditions: rats fasted 24 hours, Glibenclamide 5 mg/kg p.o. at -2.0 h, Compound A 0.1 mg/kg p.o. at -0.5 h, M ± SEM, eight rats/group; for Glucose levels, time relative to oral glucose (minutes) 0: 0 min (before oral glucose load 1g/kg); for Glucose levels, time relative to oral glucose (minutes) 20: 20 min after oral glucose load 1g/kg; for Glucose levels, time relative to oral glucose (minutes) 60: 60 min after oral glucose load 1g/kg; for Glucose levels, time relative to oral glucose (minutes) 120: 120 min after oral glucose load 1g/kg
Protocol: Effects of (S)-4-[2-(2-hydroxy-3-phenoxypropylamino)ethoxy]-N-(2-methoxyethyl)phenoxyacetamide on glibenclamide induced improvements in oral glucose tolerance in rats Glibenclamide is a sulphonylurea commonly used for the treatment of non-insulin dependent diabetes. The effects of (S)-4-[2-(2-hydroxy-3-phenoxypropylamino)ethoxy]-N-(2-methoxyethyl) phenoxyacetamide (compound A) were assessed on glibenclamide induced improvements in oral glucose tolerance. Male, Alderley Park, Wistar rats (weight range 125-150 g) were caged in groups of four in a room with normal lighting, at a temperature of 22°C. The animals were allowed free access to water and chow during an acclimatisation period of five days. At the end of this period the rats were fasted for 24 hours. After fasting a group of 8 rats was anaesthetised and a cardiac blood sample taken. The remaining rats were dosed orally according to the schedule below: [table] Glibenclamide and Compound A were dissolved in an aqueous 0.025% solution of polysorbate. The dosage volume was 0.5 ml/100 g body weight. Thirty minutes after dosing according to the schedule above a further eight rats from each group were bled. The remaining rats were then given an oral glucose load (1g/kg) dosed as a 20% solution of D-glucose (0.5 ml/100 g). Groups of eight rats for each treatment were then anaesthetised and bled 20, 60 and 120 minutes after the glucose load. Glucose levels were assayed using a glucose oxidase method on a KDK glucose analyser (Clandon).

Compound | Glucose levels, time relative to oral glucose (minutes) 0 | Glucose levels, time relative to oral glucose (minutes) 20 | Glucose levels, time relative to oral glucose (minutes) 60 | Glucose levels, time relative to oral glucose (minutes) 120
COCCNC(=O)COc1ccc(OCCNC[C@H](O)COc2ccccc2)cc1 [Compound A, (S)-4-[2-(2-hydroxy-3-phenoxypropylamino)ethoxy]-N-(2-methoxyethyl) phenoxyacetamide] | 2.77 ± 0.10 mmol | 6.16 ± 0.23 mmol | 5.37 ± 0.28 mmol | 4.99 ± 0.20 mmol
COc1ccc(Cl)cc1C(=O)NCCc1ccc(S(=O)(=O)NC(=O)NC2CCCCC2)cc1 [Glibenclamide] | 3.16 ± 0.13 mmol | 7.77 ± 0.45 mmol | 4.4 ± 0.38 mmol | 3.67 ± 0.27 mmol
